Laboratory results: US20250221982A1, “COMPOSITIONS AND METHODS FOR LOCAL DELIVERY OF PHARMACEUTICAL AGENTS TO TREAT CANCER” (The General Hospital Corporation, priority 2018, published 2025)

Columns and labels:
B16-F10 melanoma cells = test: Topical calcipotriene plus IP DMXAA against subcutaneous B16-F10 melanoma in mice; type: in vivo, mouse (wild-type C57BL/6); conditions: for T cell (CD3+CD19−) infiltrate within the treated melanoma tumors / proliferation (Ki67+) of CD4+ and CD8+ tumor infiltrating T lymphocytes (melanoma tumors): flow cytometry at harvest; for cutaneous melanoma growth (tumor volume over time): three applications, topical calcipotriene 40 nmol, IP DMXAA 400 μg, compared to EtOH plus saline, p=0.019 for the combination
Experimental: (2A) Schematic diagram of the experimental protocol used to determine the efficacy of calcipotriene plus DMXAA as a localized immunotherapy for melanoma. B16-F10 melanoma cells are implanted subcutaneously into the flanks of wild-type C57BL/6 mice. When tumors reached 5 mm in diameter (day 14), the following treatments were applied three times: (a) 40 nmol calcipotriene in 20 microliters of 100% EtOH followed by IP injection of 400 μg DMXAA in 100 μl saline, (b) 40nmol calcipotriene in 20 microliters of 100% EtOH followed by IP injection of 100 μl saline, (c) 20 microliters of 100% EtOH followed by IP injection of 400 μg DMXAA in 100 μl saline, and (d) 20 microliter 100% EtOH followed by IP injection of 100 μl saline.
Melanoma Cells (B16-F10, ATCC, Manassas, VA) were injected subcutaneously into flanks of mice at 2×10^5 cells per 100 μl of 1:1 ratio of DMEM (Corning) at day 0. Flank regions of recipient mice were shaved prior to cancer cell injection. Topical treatment with calcipotriene or EtOH together with intraperitoneal (IP) injection of DMXAA (murine STING agonist, 5,6-Dimethylxanthenone-4-acetic Acid, ASA404, or Vadimezan) or normal saline were initiated when tumor sizes reached 5 mm in diameter. Mice were divided into 4 groups and were treated topically with either calcipotriene (40 nmol) or ethanol (EtOH) as carrier directly on the tumor sites. Following treatment of either calcipotriene or EtOH (control), mice were injected IP with either 400 μg DMXAA in 100 μl normal saline or normal saline alone (control). Calcipotriene/EtOH and DMXAA/saline treatments were re-applied two more times (FIG. 2A). Animals were monitored daily and tumors measured over time to determine the impact of treatments on melanoma growth. At harvest, tumors were weighed, and the tumor infiltrating T cells were profiled using flow cytometry.

[1] = system: PyMTtg primary breast cancer cells; test: Topical treatment of subcutaneous PyMTtg breast cancer tumors in mice; type: in vivo, mouse (wild-type C57BL/6); conditions: two topical applications; calcipotriene 80 nmol, imiquimod 5% cream; compared to EtOH plus control cream; p=0.011 for the combination
Excerpt: PyMTtg primary breast cancer cells are implanted subcutaneously into the inguinal regions of wild-type C57BL/6 mice. When tumors reached 5 mm in diameter (day 13), the following topical treatments applied to the tumor sites twice: (a) 80nmol calcipotriene in 20 microliters of 100% EtOH followed by 5% imiquimod cream, (b) 80nmol calcipotriene in 20 microliter 100% EtOH followed by moisturizing (control) cream, (c) 20 microliter 100% EtOH followed by 5% imiquimod cream, and (d) 20 microliter 100% EtOH followed by moisturizing (control) cream.
Breast cancer cells were obtained from PyMTtg mice that develop spontaneous breast cancer resembling luminal type of breast cancer in humans^12. Breast cancers of PyMTtg mice were harvested before the tumors reached 2 cm in diameter. Cancers were excised and dissociated into single cell suspension. Breast cancer cells were re-suspended at a concentration of 1×10^6 cells per 100 μl of 1:1 ratio of RPMI and Matrigel Membrane Matrix (Corning). Inguinal regions of recipient mice were shaved prior to cancer cell injection. 1×10^6 cells were injected subcutaneously at day 0. Topical treatments were applied when tumor sizes reached 5 mm in diameter. […] Animals were monitored daily and tumors measured over time to determine the impact of topical treatments on breast cancer growth. […]

Compound: Cc1ccc2c(=O)c3cccc(CC(=O)O)c3oc2c1C [DMXAA, 5,6-Dimethylxanthenone-4-acetic Acid]
- T cell (CD3+CD19−) infiltrate within the treated melanoma tumors (B16-F10 melanoma cells): absent
- proliferation (Ki67+) of CD4+ and CD8+ tumor infiltrating T lymphocytes (melanoma tumors) (B16-F10 melanoma cells): absent
- cutaneous melanoma growth (tumor volume over time) (B16-F10 melanoma cells): did not show a significant impact on melanoma development

Compound: C=C1/C(=C\C=C2/CCC[C@]3(C)[C@@H]([C@H](C)/C=C/[C@@H](O)C4CC4)CC[C@@H]23)C[C@@H](O)C[C@@H]1O [calcipotriene]
- cutaneous breast tumor growth (tumor volume over time) [1]: did not show a significant impact on breast cancer growth
- T cell (CD3+CD19−) infiltrate within the treated melanoma tumors (B16-F10 melanoma cells): absent
- proliferation (Ki67+) of CD4+ and CD8+ tumor infiltrating T lymphocytes (melanoma tumors) (B16-F10 melanoma cells): absent
- cutaneous melanoma growth (tumor volume over time) (B16-F10 melanoma cells): showed efficacy in inhibiting melanoma growth

Compound: CC(C)Cn1cnc2c(N)nc3ccccc3c21 [imiquimod]
- cutaneous breast tumor growth (tumor volume over time) [1]: did not show a significant impact on breast cancer growth
